Target: NRF2 (nuclear factor erythroid 2-related factor 2) (Homo sapiens, UniProt Q16236)
Assay: FP displacement of fluorescein-ARE DNA from purified NRF2-MAFG
Type: binding

NRF2 (nuclear factor erythroid 2-related factor 2), sequence (O15525 whole entry): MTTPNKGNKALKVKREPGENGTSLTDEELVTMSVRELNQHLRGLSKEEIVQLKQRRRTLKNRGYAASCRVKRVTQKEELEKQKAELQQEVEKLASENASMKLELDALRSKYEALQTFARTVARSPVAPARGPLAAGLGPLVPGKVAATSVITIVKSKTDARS
NRF2 (nuclear factor erythroid 2-related factor 2), sequence (Q16236 whole entry): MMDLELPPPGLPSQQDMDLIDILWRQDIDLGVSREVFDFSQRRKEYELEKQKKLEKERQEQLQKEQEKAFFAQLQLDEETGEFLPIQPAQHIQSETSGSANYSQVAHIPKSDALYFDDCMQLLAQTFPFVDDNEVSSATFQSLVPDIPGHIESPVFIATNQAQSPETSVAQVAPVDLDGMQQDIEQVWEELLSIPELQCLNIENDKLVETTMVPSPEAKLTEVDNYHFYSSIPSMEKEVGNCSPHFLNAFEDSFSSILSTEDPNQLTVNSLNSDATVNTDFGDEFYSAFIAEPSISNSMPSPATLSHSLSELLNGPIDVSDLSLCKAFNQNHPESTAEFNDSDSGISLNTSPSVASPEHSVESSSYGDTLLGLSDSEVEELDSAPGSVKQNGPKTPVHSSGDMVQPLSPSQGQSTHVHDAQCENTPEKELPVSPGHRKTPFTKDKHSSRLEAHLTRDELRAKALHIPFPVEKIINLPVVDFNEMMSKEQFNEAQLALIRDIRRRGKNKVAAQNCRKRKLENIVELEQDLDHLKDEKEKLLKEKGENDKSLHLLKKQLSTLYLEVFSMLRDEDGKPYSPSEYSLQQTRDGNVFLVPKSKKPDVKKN

Molecule Cc1ccccc1C(=O)N1CCc2cc(-c3nc(NC(=O)Cc4ccc5c(c4)OCO5)sc3C)ccc21 [compound 2, ML385] has an IC50 of 1900 nM.

— paper PMC5367156 (ACS chemical biology, 2016)
